Patent US11572399B2, “Long-acting GIP peptide analogues” (University of Copenhagen, priority 2017, dated 2023)
pIC50: −log10 of the molar value. Read-outs that look alike come from different tables or passages of the source. Peptide text beside a SMILES is read from it. * marks the point of attachment. Lauroyl = CCCCCCCCCCCC(=O)*

How the values were obtained:
[1] = molecular target: T1, human GIP receptor (Homo sapiens, UniProt P48546); assay: 125I-human GIP competition binding assay, in the presence and absence of 2% HSA; details: for Fold change HSA (2%)/Casein (0.1%): IC50 (plus HSA)/IC50 (minus HSA);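 as to all read-outs here: nonspecific binding taken as radioligand bound to untransfected cells, IC50 obtained from nonlinear regression fits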
T1 construct: host or cells: COS-7, transient transfection (calcium phosphate), cDNA in pCMV-Script
T1 sequence (P48546 22-466): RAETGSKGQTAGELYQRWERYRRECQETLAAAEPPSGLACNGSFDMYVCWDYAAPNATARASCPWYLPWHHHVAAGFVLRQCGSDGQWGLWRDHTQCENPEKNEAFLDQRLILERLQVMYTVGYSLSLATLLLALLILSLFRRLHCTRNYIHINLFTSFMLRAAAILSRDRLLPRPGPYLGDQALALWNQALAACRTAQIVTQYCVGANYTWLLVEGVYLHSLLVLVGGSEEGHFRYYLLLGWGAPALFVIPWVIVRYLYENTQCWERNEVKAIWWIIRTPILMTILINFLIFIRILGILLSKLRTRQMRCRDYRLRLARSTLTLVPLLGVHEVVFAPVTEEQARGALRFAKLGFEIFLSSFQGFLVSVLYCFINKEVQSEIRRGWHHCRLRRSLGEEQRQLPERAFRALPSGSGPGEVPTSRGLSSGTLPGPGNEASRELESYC
Method: Transient transfection of the COS-7 cells for cAMP accumulation and competition binding was performed using the calcium phosphate precipitation method with the addition of chloroquine^46-47.
Transient transfected COS-7 cells expressing the human GIP receptor were seeded in clear 96-well plates the day after transfection using a number of cells/well that obtained 5-10% specific binding of the added radioactive ligand. The following day, cells were assayed by competition binding for 3 h at 4° C. using 15-40 pM 125 I-human GIP as well as increasing concentrations unlabeled ligand in 50 mM Hepes buffer (pH 7.2) in the presence and absence of 2% HSA. After incubation, the cells were washed twice in ice-cold binding buffer (+/−2% HSA) and lysed using 200 mM NaOH with 1% SDS for 30 min. Nonspecific binding was determined as the binding of radioactive ligand to untransfected cells.
IC50, EC50, and Ki values were determined by nonlinear regression. […] Ki values were based on the formula for one class of binding sites in homologous competition binding studies and the Cheng Prussoffs formula, respectively (DeBlasi et al., 1989). To determine the HSA binding potential, the fold change in affinity (as determined by IC50) was calculated as IC50 (plus HSA)/IC50 (minus HSA).

[2] = molecular target: T1, human GIP receptor; assay: cAMP accumulation assay, agonism (ligand alone); format: cell-based; details: COS-7 cells, Table 1; for Emax: COS-7, intrinsic cAMP activity
[3] = heterologous competition binding, transiently transfected COS-7 cells expressing the human GIP receptor, read-out: Binding
[4] = binding in 0.1% casein (absence of HSA), log value, read-out: logIC50 0.1% casein (converted)

Structure (SMILES) | Emax [2] [%] | Fold change HSA (2%)/Casein (0.1%) [1] | IC50 [1, 4] [nM] | other results
CCCCCCCCCCCCCCCCCC(=O)N[C@@H](CCC(=O)O)C(=O)NCC(=O)N[C@H](C(=O)N[C@@H](Cc1ccccc1)C(=O)N[C@H](C(=O)N[C@@H](CO)C(=O)N[C@@H](CC(=O)O)C(=O)N[C@@H](Cc1ccc(O)cc1)C(=O)N[C@@H](CO)C(=O)N[C@H](C(=O)N[C@@H](C)C(=O)N[C@@H](CCSC)C(=O)N[C@@H](CC(=O)O)C(=O)N[C@@H](CCCCN)C(=O)N[C@H](C(=O)N[C@@H](Cc1c[nH]cn1)C(=O)N[C@@H](CCC(N)=O)C(=O)N[C@@H](CCC(N)=O)C(=O)N[C@@H](CC(=O)O)C(=O)N[C@@H](Cc1ccccc1)C(=O)N[C@H](C(=O)N[C@@H](CC(N)=O)C(=O)N[C@@H](Cc1c[nH]c2ccccc12)C(=O)N[C@@H](CC(C)C)C(=O)N[C@@H](CC(C)C)C(=O)N[C@@H](C)C(=O)N[C@@H](CCC(N)=O)C(=O)N[C@@H](CCCCN)C(N)=O)C(C)C)[C@@H](C)CC)[C@@H](C)CC)[C@@H](C)CC)[C@@H](C)O [AT113, [hGIP(3-30)NH2—C18/3]] | 77 |  |  | pIC50 ([1]; Table 3b, initial data, read-out: Binding IC50): 4.38; Binding fold (paired) ([1]; fold decrease in affinity compared to GIP(3-30)NH2, Table 3b): 16380 fold; pIC50 [1, 3]: 4.38; EC50 ([2]; read-out: cAMP agonism nM (EC50)): 9.9 nM
CCCCCCCCCCCC(=O)NCCCC[C@H](NC(=O)[C@@H](NC(=O)[C@H](CCCCN)NC(=O)[C@H](CC(=O)O)NC(=O)[C@H](CCSC)NC(=O)[C@H](C)NC(=O)[C@@H](NC(=O)[C@H](CO)NC(=O)[C@H](Cc1ccc(O)cc1)NC(=O)[C@H](CC(=O)O)NC(=O)[C@H](CO)NC(=O)[C@@H](NC(=O)[C@H](Cc1ccccc1)NC(=O)[C@@H](NC(=O)CNC(=O)[C@@H](N)CCC(=O)O)[C@@H](C)O)[C@@H](C)CC)[C@@H](C)CC)[C@@H](C)CC)C(=O)N[C@@H](CCC(N)=O)C(=O)N[C@@H](CCC(N)=O)C(=O)N[C@@H](CC(=O)O)C(=O)N[C@@H](Cc1ccccc1)C(=O)N[C@H](C(=O)N[C@@H](CC(N)=O)C(=O)N[C@@H](Cc1c[nH]c2ccccc12)C(=O)N[C@@H](CC(C)C)C(=O)N[C@@H](CC(C)C)C(=O)N[C@@H](C)C(=O)N[C@@H](CCC(N)=O)C(=O)N[C@@H](CCCCN)C(N)=O)C(C)C [AT116, [hGIP(3-30)NH2—C12/18]] (H-EGTFISDYSIAMDKIK(Lauroyl)QQDFVNWLLAQK-NH2; N-terminus assumed) | 0 |  |  | Fold change in affinity, IC50 (plus HSA)/IC50 (minus HSA) ([1]; presence vs absence of 2% HSA, proxy for albumin binding): 5.2 fold
CCCCCCCCCCCCCC(=O)NCCCC[C@H](NC(=O)[C@H](CC(=O)O)NC(=O)[C@H](CCSC)NC(=O)[C@H](C)NC(=O)[C@@H](NC(=O)[C@H](CO)NC(=O)[C@H](Cc1ccc(O)cc1)NC(=O)[C@H](CC(=O)O)NC(=O)[C@H](CO)NC(=O)[C@@H](NC(=O)[C@H](Cc1ccccc1)NC(=O)[C@@H](N)[C@@H](C)O)[C@@H](C)CC)[C@@H](C)CC)C(=O)N[C@H](C(=O)N[C@@H](Cc1c[nH]cn1)C(=O)N[C@@H](CCC(N)=O)C(=O)N[C@@H](CCC(N)=O)C(=O)N[C@@H](CC(=O)O)C(=O)N[C@@H](Cc1ccccc1)C(=O)N[C@H](C(=O)N[C@@H](CC(N)=O)C(=O)N[C@@H](Cc1c[nH]c2ccccc12)C(=O)N[C@@H](CC(C)C)C(=O)N[C@@H](CC(C)C)C(=O)N[C@@H](C)C(=O)N[C@@H](CCC(N)=O)C(=O)N[C@@H](CCCCN)C(N)=O)C(C)C)[C@@H](C)CC [AT122, [hGIP(5-30)NH2—C14/16]] | 0 | 4.9 | 1260 | 
CCCCCCCCCCCCCCCC(=O)N[C@H](C(=O)N[C@@H](Cc1ccccc1)C(=O)N[C@H](C(=O)N[C@@H](CO)C(=O)N[C@@H](CC(=O)O)C(=O)N[C@@H](Cc1ccc(O)cc1)C(=O)N[C@@H](CO)C(=O)N[C@H](C(=O)N[C@@H](C)C(=O)N[C@@H](CCSC)C(=O)N[C@@H](CC(=O)O)C(=O)N[C@@H](CCCCN)C(=O)N[C@H](C(=O)N[C@@H](Cc1c[nH]cn1)C(=O)N[C@@H](CCC(N)=O)C(=O)N[C@@H](CCC(N)=O)C(=O)N[C@@H](CC(=O)O)C(=O)N[C@@H](Cc1ccccc1)C(=O)N[C@H](C(=O)N[C@@H](CC(N)=O)C(=O)N[C@@H](Cc1c[nH]c2ccccc12)C(=O)N[C@@H](CC(C)C)C(=O)N[C@@H](CC(C)C)C(=O)N[C@@H](C)C(=O)N[C@@H](CCC(N)=O)C(=O)N[C@@H](CCCCN)C(N)=O)C(C)C)[C@@H](C)CC)[C@@H](C)CC)[C@@H](C)CC)[C@@H](C)O [AT124, [hGIP(5-30)NH2—C16/5]] | 0 | 5.2 | 1580 | 
CCCCCCCCCCCCCCCCCC(=O)N[C@H](C(=O)N[C@@H](Cc1ccccc1)C(=O)N[C@H](C(=O)N[C@@H](CO)C(=O)N[C@@H](CC(=O)O)C(=O)N[C@@H](Cc1ccc(O)cc1)C(=O)N[C@@H](CO)C(=O)N[C@H](C(=O)N[C@@H](C)C(=O)N[C@@H](CCSC)C(=O)N[C@@H](CC(=O)O)C(=O)N[C@@H](CCCCN)C(=O)N[C@H](C(=O)N[C@@H](Cc1c[nH]cn1)C(=O)N[C@@H](CCC(N)=O)C(=O)N[C@@H](CCC(N)=O)C(=O)N[C@@H](CC(=O)O)C(=O)N[C@@H](Cc1ccccc1)C(=O)N[C@H](C(=O)N[C@@H](CC(N)=O)C(=O)N[C@@H](Cc1c[nH]c2ccccc12)C(=O)N[C@@H](CC(C)C)C(=O)N[C@@H](CC(C)C)C(=O)N[C@@H](C)C(=O)N[C@@H](CCC(N)=O)C(=O)N[C@@H](CCCCN)C(N)=O)C(C)C)[C@@H](C)CC)[C@@H](C)CC)[C@@H](C)CC)[C@@H](C)O [AT127, [hGIP(5-30)NH2—C18/5]] | 0 | 0.0 | 1580 | 
CCCCCCCCCCCCCCCCCC(=O)NCCCC[C@H](NC(=O)[C@H](CCC(N)=O)NC(=O)[C@H](C)NC(=O)[C@H](CC(C)C)NC(=O)[C@H](CC(C)C)NC(=O)[C@H](Cc1c[nH]c2ccccc12)NC(=O)[C@H](CC(N)=O)NC(=O)[C@@H](NC(=O)[C@H](Cc1ccccc1)NC(=O)[C@H](CC(=O)O)NC(=O)[C@H](CCC(N)=O)NC(=O)[C@H](CCC(N)=O)NC(=O)[C@H](Cc1c[nH]cn1)NC(=O)[C@@H](NC(=O)[C@H](CCCCN)NC(=O)[C@H](CC(=O)O)NC(=O)[C@H](CCSC)NC(=O)[C@H](C)NC(=O)[C@@H](NC(=O)[C@H](CO)NC(=O)[C@H](Cc1ccc(O)cc1)NC(=O)[C@H](CC(=O)O)NC(=O)[C@H](CO)NC(=O)[C@@H](NC(=O)[C@H](Cc1ccccc1)NC(=O)[C@@H](N)[C@@H](C)O)[C@@H](C)CC)[C@@H](C)CC)[C@@H](C)CC)C(C)C)C(N)=O [AT129, [hGIP(5-30)NH2—C18/30]] | 0 |  |  | IC50 ([1]; heterologous competition binding, transiently transfected COS-7 cells expressing the human GIP receptor, log value of the nM column, read-out: Binding log (converted)): 126000 nM
CC[C@H](C)[C@H](NC(=O)[C@H](CO)NC(=O)[C@H](Cc1ccc(O)cc1)NC(=O)[C@H](CC(=O)O)NC(=O)[C@H](CO)NC(=O)[C@@H](NC(=O)[C@H](Cc1ccccc1)NC(=O)[C@@H](N)[C@@H](C)O)[C@@H](C)CC)C(=O)N[C@@H](C)C(=O)N[C@@H](CCSC)C(=O)N[C@@H](CC(=O)O)C(=O)N[C@@H](CCCCNC(=O)CCCCCCCCCCCCC(=O)O)C(=O)N[C@H](C(=O)N[C@@H](Cc1c[nH]cn1)C(=O)N[C@@H](CCC(N)=O)C(=O)N[C@@H](CCC(N)=O)C(=O)N[C@@H](CC(=O)O)C(=O)N[C@@H](Cc1ccccc1)C(=O)N[C@H](C(=O)N[C@@H](CC(N)=O)C(=O)N[C@@H](Cc1c[nH]c2ccccc12)C(=O)N[C@@H](CC(C)C)C(=O)N[C@@H](CC(C)C)C(=O)N[C@@H](C)C(=O)N[C@@H](CCC(N)=O)C(=O)N[C@@H](CCCCN)C(N)=O)C(C)C)[C@@H](C)CC [AT139, [hGIP(5-30)NH2—C14diacid/16]] | 0 | 2.6 | 158 | pIC50 [1, 3]: 6.81
